This is an account of results in paper PMC8631515 (Frontiers in Oncology, 2021).

Non-standard residues stand in square brackets, D forms with d. No end group written: not given here.

In one series the test system is heart, liver and kidney. Nature of the series: H&E histology of major organs of tumor-bearing mice. The class given is in vivo, Balb/c mice. Conditions: CT26-bearing mice, i.p. twice a week for two weeks, n = 7.
Another series has as its system CT26 tumor. Nature of the series: Antitumor activity in CT26-bearing mice. The format is in vivo, Balb/c mice. The conditions noted are these: i.p. twice a week for two weeks.
Series [1] can be described thus: Cleavage assay of PPA1-DOX in mouse serum. The format is in vitro ADME. The conditions noted are these: mouse serum pH 7.4, 37°C, 24 h, under nitrogen, 1 mg/mol (so in the source) in 2 mL; HPLC (HILIC), UV 254 nm. The procedure: (§1) To verify the acid sensitivity of hydrazone bond linking the PPA1 to DOX, a series of PPA1-DOX and DOX solutions with different concentrations were configured in the sodium phosphate buffer (pH= 9.0), respectively. A 5 μL aliquot of each sample was injected onto an HPLC system with ultraviolet detector wavelength to determine 254 nm absorbance values, using hydrophilic interaction chromatography (HILIC) column separation (Waters, XBridge BEH HILIC XP Column, 2.1 mm, 50 mm, 2.5 µm). Through simulating the linearity fitting from disposed concentrations and detected absorbance values, standard curves of PPA1-DOX and DOX were obtained, respectively.
(§2) Preparing two partials of PPA1-DOX (1 mg/mol) were dissolved into the 2 mL sodium phosphate buffer (pH = 5.0) and 2 mL mouse serum (pH = 7.4), respectively, and the vials were capped and kept 37°C under nitrogen with continuously slight oscillaation. Samples (20 μL) were spiked and analyzed by HPLC under the 254 nm absorbance value after incubating 0.5 h, 1 h, 2 h, 4 h, 12 h and 24 h. For evaluation of hydrazone bond cleavage data was considered the disappearance of the major peak related to the standard curves of PPA1-DOX and DOX.

Series [2] is described as follows: Body weight of CT26 tumor-bearing mice. The conditions noted are these: i.p. twice a week for two weeks, DOX 5 mg/kg, 5-Fu 10 mg/kg, PPA1 15 mg/kg, PPA1-DOX 20 mg/kg, after day 7, n = 7. The source says: Six-week-old female Balb/c mice were inoculated subcutaneously with 5 × 10^6 CT26 cells in the left armpit. The mice were randomly divided into groups with 7 mice in each group after the tumor reached about 100 mm^3. The mice were housed in animal house of Shenzhen University. For the survival experiment, the mice were killed when the tumor reached about 1500 mm^3. The tumor size and body weight were monitored every day after the injection of the drugs. At the end of the experiment, the tumors and major organs (heart, liver, spleen, lung, and kidney) were collected for immunohistochemistry and/or histological tests. For the PPA1-DOX distribution experiment, the tumors and major organs were subsequently analyzed with an in vivo imaging system (IVIS Spectrum, PerkinElmer).
DOX at 5 mg/kg, 5-Fu at 10 mg/kg, PPA1 and RAN at 15mg/kg, PPA1-DOX and RAN-DOX at 20 mg/kg were injected intraperitoneally to mice twice a week for two weeks. […] For the PPA1-DOX distribution experiment, RhB-PPA1-DOX and RhB-RAN-DOX at 20mg/kg were injected into the tail vein of the mice.

Series [3] is described as follows: Cleavage assay of PPA1-DOX in acidic sodium phosphate buffer. The class given is physicochemical. The conditions noted are these: sodium phosphate buffer pH 5.0, 37°C, sampled 0.5-24 h, under nitrogen, 1 mg/mol (so in the source) in 2 mL; HPLC (HILIC), UV 254 nm. The procedure:
as §1, §2

For series [4], the system named is intratumoral CD4+ and CD8+ T cells. Nature of the series: CD4/CD8 immunohistochemistry of tumor tissues. The class given is in vivo, Balb/c mice. Conditions: CT26-bearing mice, compared with RNA-DOX-, DOX- or 5-FU-treated mice. Here is the method:
The tumor tissues were fixed in 4% paraformaldehyde, gradually dehydrated, embedded in paraffin, cut into 4um sections, and subjected for hematoxylin/eosin staining. For immuno-histochemical staining of CD4/CD8 positive cells, tissue sections processed through deparaffinage, rehydration and antigen plerosised, and endogenous peroxidase activity blockade, were incubated with mouse anti-human CD4(1:300, Proteintech, USA), mouse anti-human CD8(1:200, Proteintech, USA) at 4°C overnight, respectively. The secrions were then washed and incubated with a HRP-labeled secondary antibody at RT for 40 min. After color development through incubation with diaminobenzidine, the sections were counterstained with hematoxylin. The stained sections were observed and imaged under a light microscope.

Series [5] addresses Programmed death-ligand 1 (PD-L1), Tag1-PD-L1 (UniProt Q9NZQ7 19-238). The experiment in a line: AlphaScreen or HTRF; Cisbio HTRF PD1/PD-L1 binding assay kit; Tag1-PD-L1 and Tag2-PD1 detected with anti-Tag1-Europium (donor) and anti-Tag2-XL665 (acceptor); peptide or conjugate varied as blocker; IC50 from a sigmoidal (Hill) fit; n = 3. The conditions noted are these: both partners purified. In general terms: In Alpha technology, singlet oxygen from a donor bead excites a nearby acceptor bead.

Sequence of Programmed death-ligand 1 (PD-L1), Tag1-PD-L1 (Q9NZQ7 19-238): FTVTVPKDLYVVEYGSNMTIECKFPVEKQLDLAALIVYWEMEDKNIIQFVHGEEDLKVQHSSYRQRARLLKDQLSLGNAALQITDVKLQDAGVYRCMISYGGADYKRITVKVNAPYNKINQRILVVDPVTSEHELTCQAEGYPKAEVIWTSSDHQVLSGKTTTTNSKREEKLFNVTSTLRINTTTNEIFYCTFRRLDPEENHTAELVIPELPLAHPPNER

For `C[C@H](O)[C@@H](NC(=O)[C@H]1CCCN1C(=O)[C@@H](CCCCN)NC(=O)[C@@H](CO)NC(=O)[C@@H](Cc1ccc(O)cc1)NC(=O)[C@H](N)CC(N)=O)C(=O)N[C@H](CC(=O)O)C(=O)N[C@H](CCCNC(=N)N)C(=O)N[C@H](CCC(N)=O)C(=O)N[C@H](Cc1ccc(O)cc1)C(=O)N[C@H](Cc1c[nH]cn1)C(=O)N[C@H](Cc1ccccc1)C(=O)N[C@H](CCCCN)C(=O)O` [PPA1], the “toxicity to major organs (H&E stained sections)” value (“toxicity to major organs” below) with heart, liver and kidney is reported as “rather low toxicity”.

Regarding `O=c1[nH]cc(F)c(=O)[nH]1` [Compound 5-Fu], the “toxicity to major organs” value in the series on heart, liver and kidney is “severe damages”.

In the case of `COc1cccc2c1C(=O)c1c(O)c3c(c(O)c1C2=O)C[C@@](O)(C(CO)=NNC(=O)CCCc1cn(CC(=O)NCCCC[C@@H](NC(=O)[C@@H](Cc2ccccc2)NC(=O)[C@@H](Cc2c[nH]cn2)NC(=O)[C@@H](Cc2ccc(O)cc2)NC(=O)[C@@H](CCC(N)=O)NC(=O)[C@@H](CCCNC(=N)N)NC(=O)[C@@H](CC(=O)O)NC(=O)[C@H](NC(=O)[C@H]2CCCN2C(=O)[C@@H](CCCCN)NC(=O)[C@@H](CO)NC(=O)[C@@H](Cc2ccc(O)cc2)NC(=O)[C@H](N)CC(N)=O)[C@H](C)O)C(=O)O)nn1)C[C@@H]3O[C@H]1C[C@H](N)[C@H](O)[C@H](C)O1` [PPA1-DOX], the survival time result with CT26 tumor (PPA1-DOX 20 mg/kg, superior to free PPA1 and RAN-DOX, mice killed at tumor about 1500 mm^3, n = 7) is “longer survival time”. In the series on CT26 tumor (PPA1-DOX and RAN-DOX 20 mg/kg, n = 7), the tumor growth result is on record as “effective suppression of tumor growth”. The “stability of conjugate in mouse serum (HPLC peaks)” value in series [1] was “little change on peaks”. Besides, the body weight change entry in series [2] is given as “no remarkable body weight loss”. The “toxicity to major organs” value with heart, liver and kidney was “rather low toxicity”. Further, the “hydrazone cleavage in acidic environment” value in series [3] is “rapidly cleaved into PPA1 and DOX”. Moreover, the “infiltration of CD4+ and CD8+ T cells in tumors” value in series [4] is given as “obviously increased infiltration”.

Regarding `COc1cccc2c1C(=O)c1c(O)c3c(c(O)c1C2=O)C[C@@](O)(C(=O)CO)C[C@@H]3O[C@H]1C[C@H](N)[C@H](O)[C@H](C)O1` [DOX, doxorubicin], the “toxicity to major organs” value with heart, liver and kidney is “severe damages”.

B1: PPA1-DOX, conjugate of PPA1 with doxorubicin through an acid-sensitive hydrazone linker (peptide)
peptide: [dN][dY][dS][dK][dP][dT][dD][dR][dQ][dY][dH][dF]K
modifications: not fully specified (residue 13); also: triazole from click, hydrazone to doxorubicin
notes: D-peptide, printed as nyskptdrqyhf-Lys(N3); the last lysine carries the azide used for the conjugation to DOX; also called compound 5; PPA-DOX; source: synthetic: azide end-functionalized PPA1 peptide joined to hydrazine-DOX by click chemistry, purified by HPLC
In general, IC50 refers to the point on the concentration scale where inhibition reaches its midpoint. The low end stands for greater potency in that assay, the high end for weaker potency in that assay. In series [5], B1 displayed a concentration for half-maximal inhibition (IC50) of 281 nM.

B2: PPA1, proteolysis resistant PD-L1-targeted peptide (peptide)
peptide: NYSKPTDRQYHFK
modifications: all residues in D-form
notes: D-peptide, printed in lower case (nyskptdrqyhfk); also called free PPA1; PD-L1 targeting polypeptide; source: synthetic peptide, bought: Chinapeptides Co., Ltd
Turning to B2, in series [5], the IC50 was determined as 174 nM.
